BindingDB's records for patent US10023539 (Bayer Pharma Aktiengesellschaft, 2018)

Target: N-lysine methyltransferase SMYD2 (Homo sapiens, UniProt Q9NRG4)
Assay: Scintillation Proximity Assay (SPA) for Detection of SMYD2 Enzymatic Inhibition
Details: pH 9
Procedure: To this end, 100-fold concentrated compound solutions (in DMSO) were previously prepared by serial dilution (1:3.4) of 2 mM stocks in a clear low volume 384-well source microtiter plate (Greiner Bio-One), from which 50 nl of compound solutions were transferred into a white low volume test microtiter plate from the same supplier. […] The samples were then incubated for 15 min at 22° C. to allow pre-equilibration of the putative enzyme-inhibitor complexes before the start of the methylation reaction, which was initiated by the addition of 2.5 μl 2-fold concentrated solution (in assay buffer) of titrated S-Adenosyl-L-Methionine (3H-SAM, Perkin Elmer, final concentration: 60 nM) and p53 Peptide substrate (final concentration: 1.0 μM). The resulting mixture (5 μl final volume) was shortly centrifuged (2 min., 1500 rpm) and incubated at 22° C. during 30 min.

N-lysine methyltransferase SMYD2, sequence (Q9NRG4 whole entry): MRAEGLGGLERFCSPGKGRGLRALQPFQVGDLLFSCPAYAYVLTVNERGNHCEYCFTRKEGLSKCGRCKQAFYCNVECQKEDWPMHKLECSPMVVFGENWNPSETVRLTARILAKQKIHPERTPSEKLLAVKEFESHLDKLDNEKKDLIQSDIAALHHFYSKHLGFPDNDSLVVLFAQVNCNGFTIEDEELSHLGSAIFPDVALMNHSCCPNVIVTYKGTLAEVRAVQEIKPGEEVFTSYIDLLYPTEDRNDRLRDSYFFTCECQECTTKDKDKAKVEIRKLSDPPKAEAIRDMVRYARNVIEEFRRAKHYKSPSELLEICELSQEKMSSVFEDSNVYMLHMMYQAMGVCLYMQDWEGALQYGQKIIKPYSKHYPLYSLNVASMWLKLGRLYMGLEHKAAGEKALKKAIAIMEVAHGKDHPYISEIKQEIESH

SMILES: CCN(C(=O)[C@@H](C)NC)C1CN(/C(=N\C#N)Nc2cccc(OC(F)F)c2)N=C1c1ccc(Cl)c(C)c1 (stereo partly specified) [US10023539, Example 37]
- IC50: 231 nM
